Earlier results in patent US20140308215A1, “ANTIPERSPIRANT COMPOSITIONS AND METHOD FOR REDUCING PERSPIRATION” (Conopco, Inc., d/b/a Unilever, priority 2011, published 2014).

Settings: Hildebrand Solubility Parameter of the liquid carrier

| HSP | Structure (SMILES) |
| --- | --- |
| 16.36 (MPa)^0.5 | CCCCCCCCCCCCCCCC [Hexadecane] |
| 16.40 (MPa)^0.5 | CCCCCCCCCCCCCC(=O)OC(C)C [Isopropyl myristate] |
| 18.25 (MPa)^0.5 | CCCCCCCCCCC(CO)CCCCCCCC (stereo not shown) [Octyl dodecanol] |
| 18.02 (MPa)^0.5 | CCCCC(CC)C(=O)OCC(COC(=O)C(CC)CCCC)OC(=O)C(CC)CCCC (stereo not shown) [Triethylhexanoin] |
